Active and inactive are the calls of the source.
Tests used:
[1] = Intein inhibitors as potential Tuberculosis drugs, a cytotoxicity screen. [Related pubchem assays (depositor defined):AID2221, AID2223, AID434968, AID435010, AID449749, AID449750, AID489010]; assay type: functional
[2] = molecular target: T1, Replicative DNA helicase DnaB (Mycobacterium tuberculosis, UniProt P9WMR3); test: DnaB intein splicing inhibitors, dose response, biochemical, cell-free fluorescence (AID 449749); assay type: functional
T1 sequence (P9WMR3 whole entry): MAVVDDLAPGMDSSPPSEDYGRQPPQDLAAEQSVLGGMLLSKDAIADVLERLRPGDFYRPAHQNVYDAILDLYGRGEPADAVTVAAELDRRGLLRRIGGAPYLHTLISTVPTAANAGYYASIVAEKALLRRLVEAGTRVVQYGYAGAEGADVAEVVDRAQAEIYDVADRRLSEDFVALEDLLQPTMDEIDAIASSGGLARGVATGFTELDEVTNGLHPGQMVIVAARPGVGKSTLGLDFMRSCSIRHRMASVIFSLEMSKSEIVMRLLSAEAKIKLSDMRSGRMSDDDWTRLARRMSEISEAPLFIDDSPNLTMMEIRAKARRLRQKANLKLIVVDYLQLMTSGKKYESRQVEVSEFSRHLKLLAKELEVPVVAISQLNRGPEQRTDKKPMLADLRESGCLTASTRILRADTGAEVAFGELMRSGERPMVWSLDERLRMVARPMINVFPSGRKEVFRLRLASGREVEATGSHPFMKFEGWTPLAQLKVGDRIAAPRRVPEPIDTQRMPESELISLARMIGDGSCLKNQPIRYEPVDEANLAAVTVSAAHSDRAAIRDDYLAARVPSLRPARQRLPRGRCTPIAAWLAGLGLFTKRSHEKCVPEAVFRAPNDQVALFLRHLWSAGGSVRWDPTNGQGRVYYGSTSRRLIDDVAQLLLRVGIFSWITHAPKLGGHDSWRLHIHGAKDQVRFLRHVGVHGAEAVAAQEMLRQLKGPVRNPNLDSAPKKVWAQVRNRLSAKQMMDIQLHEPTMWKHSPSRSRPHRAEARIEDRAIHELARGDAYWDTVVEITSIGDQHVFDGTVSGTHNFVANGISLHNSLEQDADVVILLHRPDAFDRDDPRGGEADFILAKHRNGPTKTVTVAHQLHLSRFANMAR

[3] = blockers of bursicon-stimulated LGR2 cAMP reporter – cell-based, HEK293, CRE-luciferase reporter, cherry pick, set 2, dose response (AID 743343); assay type: functional;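 further: transfected cells were stimulated with diluted bursicon conditioned medium after compound addition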
[4] = A549 cell cytotoxicity, dose response, cytotoxicity control, plate reader, cherry-pick, antagonist series (AID 743412); assay type: functional, cell-based
[5] = viability loss in HEK293 cells – cell-based, plate reader, cherry-picked samples, cytotoxicity control, dose response (AID 743446); assay type: functional
Protein RecA = molecular target: T2, Protein RecA (Mycobacterium tuberculosis, UniProt P9WHJ3); test: Fluorescence Cell-Free Homogeneous Dose Retest to Identify Inhibitors of RecA-Intein Splicing Activity. [Related pubchem assays (depositor defined):AID2097, AID2223, AID489010, AID492950]; assay type: functional
T2 sequence (P9WHJ3 whole entry): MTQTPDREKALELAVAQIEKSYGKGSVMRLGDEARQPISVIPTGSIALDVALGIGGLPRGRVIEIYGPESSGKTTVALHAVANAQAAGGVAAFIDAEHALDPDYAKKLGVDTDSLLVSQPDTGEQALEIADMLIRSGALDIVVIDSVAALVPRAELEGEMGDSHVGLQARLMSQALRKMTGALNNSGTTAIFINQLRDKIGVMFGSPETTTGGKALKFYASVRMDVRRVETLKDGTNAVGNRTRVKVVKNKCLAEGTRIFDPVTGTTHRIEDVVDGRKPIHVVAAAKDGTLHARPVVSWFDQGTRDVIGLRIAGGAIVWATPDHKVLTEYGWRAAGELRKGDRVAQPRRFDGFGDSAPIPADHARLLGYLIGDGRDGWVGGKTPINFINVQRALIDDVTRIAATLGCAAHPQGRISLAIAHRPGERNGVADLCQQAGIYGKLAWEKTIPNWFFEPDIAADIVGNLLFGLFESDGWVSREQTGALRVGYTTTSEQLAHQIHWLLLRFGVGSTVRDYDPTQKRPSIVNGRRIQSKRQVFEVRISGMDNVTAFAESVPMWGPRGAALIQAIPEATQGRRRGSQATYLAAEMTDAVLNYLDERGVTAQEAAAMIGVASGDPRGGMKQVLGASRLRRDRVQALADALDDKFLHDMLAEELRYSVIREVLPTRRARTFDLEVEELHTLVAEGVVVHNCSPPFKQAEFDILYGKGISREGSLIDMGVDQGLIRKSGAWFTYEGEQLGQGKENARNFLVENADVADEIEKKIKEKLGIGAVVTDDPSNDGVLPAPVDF

[6] = toxicity toward HepG2 liver cells – cell-based, plate reader, cherry-pick, antagonist series, cytotoxicity control, dose response (AID 743416); assay type: functional
[7] = viability of uninfected HEp-2 cells – cell-based, HTS, cytotoxicity control for RSV inhibitor project, dose response (AID 2410); assay type: functional; conditions: human respiratory syncytial virus
[8] = blockade of melanocortin 4 receptor signaling – cell-based, plate reader, cherry pick, counter-screen for LGR2 antagonist project, dose response (AID 743444); assay type: functional;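 further: transfected HEK 293 cells stimulated with alpha-MSH peptide; potency of inhibitors of the alpha-MSH evoked signal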
[9] = molecular target: T3, Tyrosine-protein phosphatase non-receptor type 22 (Homo sapiens, UniProt Q9Y2R2); test: PubChem AID 2135
T3 sequence (Q9Y2R2 whole entry): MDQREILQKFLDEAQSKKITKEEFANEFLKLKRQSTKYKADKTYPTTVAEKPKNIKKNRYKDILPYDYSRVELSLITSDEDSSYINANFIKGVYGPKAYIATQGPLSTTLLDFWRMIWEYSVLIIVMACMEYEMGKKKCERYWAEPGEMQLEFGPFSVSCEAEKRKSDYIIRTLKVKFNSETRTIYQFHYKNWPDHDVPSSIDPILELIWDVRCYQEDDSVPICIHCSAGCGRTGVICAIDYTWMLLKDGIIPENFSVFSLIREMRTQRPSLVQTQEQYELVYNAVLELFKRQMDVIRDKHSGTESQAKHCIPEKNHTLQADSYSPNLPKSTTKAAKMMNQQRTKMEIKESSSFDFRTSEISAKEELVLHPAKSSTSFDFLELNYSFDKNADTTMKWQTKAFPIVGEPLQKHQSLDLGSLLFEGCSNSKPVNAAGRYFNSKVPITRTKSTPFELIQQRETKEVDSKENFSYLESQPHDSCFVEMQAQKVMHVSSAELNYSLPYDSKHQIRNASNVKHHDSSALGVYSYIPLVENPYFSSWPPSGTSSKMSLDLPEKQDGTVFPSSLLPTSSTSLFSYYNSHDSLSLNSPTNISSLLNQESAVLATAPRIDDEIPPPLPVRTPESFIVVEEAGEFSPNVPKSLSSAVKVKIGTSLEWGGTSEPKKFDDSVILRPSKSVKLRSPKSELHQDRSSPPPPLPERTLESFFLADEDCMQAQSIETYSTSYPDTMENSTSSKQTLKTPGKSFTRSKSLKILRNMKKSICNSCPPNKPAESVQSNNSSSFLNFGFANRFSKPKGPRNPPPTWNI

[10] = molecular target: T3, Tyrosine-protein phosphatase non-receptor type 22; test: SAR LYP1 Fluorescent Assay using OMFP substrate for In Vitro dose response studies - Set 2. [Related pubchem assays (depositor defined):AID1779, AID1784, AID2140, AID449726, AID488869]; assay type: functional
[11] = molecular target: T3, Tyrosine-protein phosphatase non-receptor type 22; test: SAR LYP1 Fluorescent Assay using pCAP substrate for In Vitro dose response studies - Set 2. [Related pubchem assays (depositor defined):AID1779, AID1784, AID2135, AID449727]; assay type: functional
[12] = molecular target: T3, Tyrosine-protein phosphatase non-receptor type 22; test: PubChem AID 2140
[13] = molecular target: T4, Tyrosine-protein phosphatase non-receptor type 7 (Homo sapiens, UniProt P35236); test: inhibition of hematopoietic tyrosine phosphatase HePTP – biochemical, set 2, SAR follow-up (AID 449736); assay type: functional
T4 sequence (P35236 whole entry): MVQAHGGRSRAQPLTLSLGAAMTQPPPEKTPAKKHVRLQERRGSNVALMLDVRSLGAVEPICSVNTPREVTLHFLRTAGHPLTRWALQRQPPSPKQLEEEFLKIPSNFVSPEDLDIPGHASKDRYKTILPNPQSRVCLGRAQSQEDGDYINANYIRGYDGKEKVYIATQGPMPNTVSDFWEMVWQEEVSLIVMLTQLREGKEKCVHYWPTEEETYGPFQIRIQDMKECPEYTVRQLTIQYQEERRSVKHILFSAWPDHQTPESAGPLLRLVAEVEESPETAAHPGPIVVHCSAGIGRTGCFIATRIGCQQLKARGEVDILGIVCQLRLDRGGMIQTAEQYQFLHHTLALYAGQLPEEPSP

[14] = molecular target: T3, Tyrosine-protein phosphatase non-receptor type 22; test: inhibition of lymphoid tyrosine phosphatase LYP – biochemical, pCAP fluorogenic substrate, fluorescence, set 3, SAR follow-up (AID 449727); assay type: functional
[15] = molecular target: T5, Tyrosine-protein phosphatase non-receptor type 12 (Homo sapiens, UniProt Q05209); test: SAR Selectivity Analysis of small molecule inhibitors of PEST using pCAP in a fluorescence assay. [Related pubchem assays (depositor defined):AID1779, AID1784, AID2135]; assay type: functional
T5 sequence (Q05209 whole entry): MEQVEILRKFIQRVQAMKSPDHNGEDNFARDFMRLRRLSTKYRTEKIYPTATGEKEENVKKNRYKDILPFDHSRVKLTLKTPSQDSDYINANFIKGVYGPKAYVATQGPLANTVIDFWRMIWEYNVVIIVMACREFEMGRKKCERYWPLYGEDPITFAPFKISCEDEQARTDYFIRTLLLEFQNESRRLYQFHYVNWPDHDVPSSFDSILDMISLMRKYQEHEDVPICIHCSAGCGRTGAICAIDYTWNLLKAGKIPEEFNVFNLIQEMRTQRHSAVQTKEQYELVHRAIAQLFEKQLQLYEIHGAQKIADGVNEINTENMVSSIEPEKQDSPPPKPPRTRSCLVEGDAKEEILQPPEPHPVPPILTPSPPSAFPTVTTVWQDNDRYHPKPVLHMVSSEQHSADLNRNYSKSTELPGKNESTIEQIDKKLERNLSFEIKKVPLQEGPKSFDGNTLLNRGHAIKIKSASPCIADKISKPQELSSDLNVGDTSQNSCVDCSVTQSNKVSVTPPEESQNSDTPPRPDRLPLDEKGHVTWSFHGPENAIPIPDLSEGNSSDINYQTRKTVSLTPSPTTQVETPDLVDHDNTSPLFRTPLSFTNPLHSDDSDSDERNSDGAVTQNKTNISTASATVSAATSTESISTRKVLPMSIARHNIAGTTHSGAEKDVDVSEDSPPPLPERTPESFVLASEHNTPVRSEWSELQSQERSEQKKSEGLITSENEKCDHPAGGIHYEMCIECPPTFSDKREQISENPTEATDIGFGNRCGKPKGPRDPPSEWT

[16] = molecular target: T3, Tyrosine-protein phosphatase non-receptor type 22; test: SAR LYP1 Fluorescent Assay using OMFP substrate for In Vitro dose response studies - Set 3. [Related pubchem assays (depositor defined):AID1779, AID1784, AID2140, AID2686]; assay type: functional
[17] = Luminescence Cell-Based Dose Response HTS to Identify Inhibitors of 5'UTR Stem-Loop Driven Prion Protein mRNA Translation in H4 Neuroglioblastoma Cells. [Related pubchem assays: 1827 (Project Summary), 1813 (Primary HTS)]; assay type: functional
[18] = viability of PTEN-deleted HCT116 cells – cell-based, HCT116 PTEN knockout, dose response (AID 1047); assay type: functional;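 further: HCT116 colon tumor cells with PTEN knocked out; cells exposed to compound for 60 hours before readout; potency for loss of cell viability measured by luminescence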
[19] = viability of HCT116 lacking mutant beta-catenin – cell-based, human colon tumor, dose response (AID 1045); assay type: functional;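 further: HCT116 colon tumor cells with beta catenin knocked out; cells exposed to compound for 60 hours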
INS1 = test: INS-1E survival protection against cytokine death – cell-based, luminescence, retest, dose response (AID 449756); assay type: functional; conditions: Rattus norvegicus;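 further: cell death triggered by IL-1 beta plus TNF-alpha plus IFN-gamma mixture; protective hits raise ATP signal compared with cytokine alone wells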
[20] = luciferase reporter signal suppression in cells – H4 neuroglioma cells, luminescence, dose response (AID 1990); assay type: functional, cell-based
[21] = alpha-synuclein stem-loop luciferase translation blockers – H4 neuroglioma cells, luminescence, confirmation (AID 1988); assay type: functional, cell-based

Cc1sc2ncnc(Sc3nnnn3-c3ccccc3)c2c1C
active: CC50 [1] 14.4 µM | AC50 [2] 3.83 µM | AC50 [3] 4.15 µM | AC50 [4] 10.9 µM | AC50 [5] 19.3 µM | EC50 (Protein RecA) 3.18 µM | AC50 [6] 15.4 µM | CC50 [7] 11.2 µM | AC50 [8] 3.94 µM

CCOc1cc(/C=C(/C#N)c2cccc(F)c2)cc(Cl)c1OCc1ccc(C(=O)O)cc1
inactive: IC50 [9] > 100 µM | IC50 [12] > 100 µM
active: IC50 [10] 21.8 µM | IC50 [11] 36.1 µM | IC50 [13] 2.25 µM | IC50 [14] 46.7 µM | IC50 [15] 5.08 µM | IC50 [16] 34.6 µM

CCOC(=O)C1CCN(C(=O)c2c(C)oc3c2C(=O)c2ccccc2C3=O)CC1
active: CC50 [1] 13.7 µM | AC50 [2] 2.06 µM | EC50 [17] 18.3 µM | EC50 [18] 3.87 µM | EC50 [19] 3.32 µM | AC50 (INS1) 6.25 µM | EC50 (Protein RecA) 0.645 µM | EC50 [21] 7.82 µM
> 120 µM (not active): EC50 [20]
